From paper PMC12884720, “Gabpα‐Pparγ Complex Determines Glycolytic Capacity and Lactic Acid Homeostasis in Brown Fat” (Advanced Science, 2025)
Residues, ends and D or L forms follow the SMILES beside them. *: point of attachment. FITC = O=C1OC2(c3ccc(O)cc3Oc3cc(O)ccc32)c2ccc(NC(=S)*)cc21

What was measured:
Gabpα‐Pparγ complex = assay: SPR competitive binding assay, GPCBi on Gabpα and Pparγ interaction; settings: equal concentration of Gabpα and different concentrations of GPCBi over immobilized Pparγ (Figure 4b)
Experimental: SPR analysis was performed using a Biacore T200 system (Cytiva) equipped with a Series S Sensor Chip CM5. Briefly, the ligand Pparγ protein was immobilized to the CM5 Chip via covalent bonds to the amino acid residues in immobilization buffer. Subsequently, different concentrations of Gabpα were diluted in the analyte buffer and were injected into the flowing channel to allow interaction between Pparγ and Gabpα. For a competitive binding assay, an equal concentration of Gabpα and different concentrations of GPCBi were injected into the flowing channel to examine the effect of the interaction between Pparγ and Gabpα. The interacting phase included 120 s of the association phase and 200 s of the dissociation phase. The data were analyzed in a Biacore T200 Evaluation Software (Cytiva).

Eno1 promoter = assay: Luciferase reporter assay, Eno1-Luc activated by Gabpα and Pparγ/Rxrα; assay type: cell-based, human; settings: HEK293T cells, GPCBi 3 µM, n = 3 (Figure 4g)
Experimental: HEK293T cells were transfected with 100 ng of Pparγ and 100 ng of Rxrα or empty vector together with 100 ng of Gabpα plasmid or the C‐terminal truncation mutants and 200 ng of Eno1 luciferase reporter plasmid in 24‐well plates via Lipofectamine reagent (Yeasen, Shanghai, China, Cat# 40802ES03). For the experiments with the peptides GPCBi or T0070907, the additional peptides GPCBi (3 µM) or T0070907 (10 µM) were added to the HEK293T cells one day after the plasmid complex was transfected. After 48 h of transfection, luciferase activity was measured via the Dual‐Luciferase Reporter Assay System (Vazyme Biotech., Nanjing, China; Cat# DL101‐01). Firefly luciferase reporter gene measurements were normalized to Renilla luciferase activity.

[1] = tested on: differentiated iBAT‐SVF cells; assay: Relative mRNA and protein levels in differentiated iBAT-SVF cells; assay type: cell-based, C57BL/6 mice; settings: GPCBi 5 µM
Experimental: Interscapular BAT‐SVF cells were obtained from eight‐week‐old male C57BL/6 mice. […] The tissue homogenates were filtered through a 70 µm cell strainer and centrifuged at 1000 rpm for 5 min. The cell pellet was resuspended in DMEM supplemented with 10% FBS (Sigma–Aldrich) and 1% penicillin/streptomycin (P/S) at 37 °C with 5% CO2. The next day, BAT‐SVF cells were immortalized with the SV40 large T antigen according to a published protocol.^[ [32] ^] […] After 48 h, the induction medium was replaced with a maintenance cocktail (5 µg mL^−1 insulin, 1 nM triiodo‐L‐thyronine, and 1 µM rosiglitazone) until 6 to 8 days after the induction of differentiation.
Reverse transcription of cDNA was completed via the use of 1 µg of RNA with HiScript II Q RT SuperMix for real‐time quantitative PCR (qPCR) (Vazyme Biotech, Nanjing, China, Cat# R222) according to the provided protocols. qPCR was performed with a real‐time PCR system on a QuantStudio1 (Applied Biosystems) using Taq Pro Universal SYBR qPCR Master Mix (Vazyme Biotech., Nanjing, China, Cat# Q712‐02). Relative transcript levels were calculated via the comparative C T method; 36b4 was used as the internal control for cells, whereas Hprt was used as the internal control for tissues. The primer sequences are listed in Table S1 (Supporting Information). The mRNAs from the BAT of control and Gabpα ^Ucp1 KO mice were extracted and subjected to commercial RNA‐seq (BGI Genomics Co., Ltd.) for further DEG and KEGG pathway enrichment analysis. In detail, RNA quality was examined with Fragment (Agilent). High‐quality RNA (RIN > 8.0) was used to library construction. RNA‐seq was performed at BGI Genomics (China) using the Illumina NovaSeq 6000 platform. Clean reads were aligned to the mouse reference genome (GRCm39) using Bowtie2, and transcript quantification was performed with RSEM. […] The RNA‐seq data generated in this study have been deposited in the National Center for Biotechnology Information Sequence Read Archive database under accession code PRJNA1358056.
Cells and tissues were lysed in RIPA lysis buffer (Beyotime, Shanghai, China, Cat# P0013B) containing a protease inhibitor cocktail (MedChem Express, NJ, USA, Cat# HY‐K0010) according to the manufacturer's protocol. Equal amounts of protein were separated on SDS‒PAGE gels and transferred to PVDF membranes (Millipore). The PVDF membranes were blocked in 5% skim milk for 1 h at room temperature and then incubated with primary antibody overnight at 4 °C. The membranes were washed three times with TBST and then incubated with HRP‐conjugated secondary antibodies for 1 h at room temperature. After washing three times, the Western blots were imaged via an enhanced chemiluminescence system.

[2] = tested on: differentiated iBAT‐SVF cells; assay: Lactate levels in differentiated iBAT-SVF cells; assay type: cell-based, C57BL/6 mice; settings: GPCBi 5 µM
Experimental: Interscapular BAT‐SVF cells were obtained from eight‐week‐old male C57BL/6 mice. Briefly, BAT was excised, washed in PBS, minced, and digested at 37 °C for 40 min in Hanks solution containing type II collagenase (Sigma, Cat# C‐6885) and 4% bovine serum albumin (BSA). The tissue homogenates were filtered through a 70 µm cell strainer and centrifuged at 1000 rpm for 5 min. The cell pellet was resuspended in DMEM supplemented with 10% FBS (Sigma–Aldrich) and 1% penicillin/streptomycin (P/S) at 37 °C with 5% CO2. The next day, BAT‐SVF cells were immortalized with the SV40 large T antigen according to a published protocol.^[ [32] ^] For iBAT‐SVF cell differentiation, confluent SVF cells were induced to differentiate with medium containing 0.5 mM isobutylmethylxanthine (Sigma, Cat# I‐5879), 125 µM indomethacin (Sigma, Cat# I‐7378), 2 µg mL^−1 dexamethasone (Sigma, Cat# D‐1756), 5 µg mL^−1 insulin (Solarbio, Cat# I‐8040), 1 nM triiodo‐L‐thyronine (Sigma, Cat# T‐2877), and 1 µM rosiglitazone (Cayman, Cat# 71740‐100). After 48 h, the induction medium was replaced with a maintenance cocktail (5 µg mL^−1 insulin, 1 nM triiodo‐L‐thyronine, and 1 µM rosiglitazone) until 6 to 8 days after the induction of differentiation.
Brown fat was homogenized with lysis buffer, ultrasonographically treated on ice at 300 W (on for 3 s, off for 7 s) for 2 min, and then centrifuged at 4 °C at 12 000 × g for 10 min. […] All protocols were followed in accordance with the manufacturer's guidelines.

Structure (SMILES): CC[C@H](C)[C@H](NC(=O)[C@H](CCCNC(=N)N)NC(=O)[C@H](CS)NC(=O)[C@H](CC(N)=O)NC(=O)[C@H](CC(C)C)NC(=O)[C@H](CC(=O)O)NC(=O)[C@H](CS)NC(=O)[C@H](CCCNC(=N)N)NC(=O)[C@H](CC(=O)O)NC(=O)[C@H](Cc1ccc(O)cc1)NC(=O)[C@@H](NC(=O)[C@H](CC(C)C)NC(=O)[C@H](CCCCN)NC(=O)[C@H](CC(C)C)NC(=O)[C@H](CCCNC(=N)N)NC(=O)[C@@H](NC(=O)[C@@H](NC(=O)[C@H](CCCNC(=N)N)NC(=O)[C@H](CCCNC(=N)N)NC(=O)[C@H](CCCNC(=N)N)NC(=O)[C@H](CCCNC(=N)N)NC(=O)[C@H](CCCNC(=N)N)NC(=O)[C@H](CCC(N)=O)NC(=O)[C@H](CCCNC(=N)N)NC(=O)[C@H](CCCNC(=N)N)NC(=O)[C@H](CCCCN)NC(=O)[C@H](CCCCN)NC(=O)[C@H](CCCNC(=N)N)NC(=O)CNC(=O)[C@H](Cc1ccc(O)cc1)NC(=S)Nc1ccc2c(c1)C(=O)OC21c2ccc(O)cc2Oc2cc(O)ccc21)[C@@H](C)O)[C@@H](C)CC)[C@@H](C)CC)C(=O)N[C@@H](Cc1c[nH]cn1)C(=O)N[C@@H](CCCCN)C(=O)N[C@@H](CCCCN)C(=O)N[C@@H](CO)C(=O)N[C@@H](CCCNC(=N)N)C(=O)N[C@@H](CC(N)=O)C(=O)N[C@@H](CCCCN)C(=O)O [GPCBi] ({FITC}-YGRKKRRQRRRRRTIRLKLIYDRCDLNCRIHKKSRNK-OH; N-terminus and C-terminus assumed)
- effect on Gabpα affinity toward Pparγ (Gabpα‐Pparγ complex): dose‐dependently attenuated this interaction
- Gabpα‐Pparγ complex‐mediated activation of the Eno1 promoter (Eno1 promoter): suppressed
- expression of glycolytic and thermogenic genes ([1]; first 2 days of adipogenic differentiation (Figure 4e,f), mRNA n = 3): decreased the expression of glycolytic and thermogenic genes
- expression of adipogenic gene Adipoq ([1]; first 2 days of adipogenic differentiation (Figure 4e,f), n = 3): did not change
- expression of Ldh and Ucp1 in brown adipocytes ([1]; first 2 days of adipogenic differentiation (Figure 5m)): lower expression
- regulatory gene expression of the futile lipid cycle, differentiated iBAT‐SVF cells ([1]; first 2 days of adipogenic differentiation (Figure S5c)): substantially impaired
- thermogenic gene ucp1 in GPCBi‐treated brown adipocytes ([1]; first 2 days of adipogenic differentiation, without Enoblock (Figure 5p)): downregulated
- intracellular lactate levels in brown adipocytes ([2]; first 2 days of adipogenic differentiation (Figure 5l)): decreased
- lactate level in GPCBi‐treated brown adipocytes ([2]; first 2 days of adipogenic differentiation, versus scramble peptide, without Enoblock (Figure 5o)): reduced
